Among the test systems are SNB-75 CNS; CCRF-CEM leukemia; HS 578T breast; UACC-62 melanoma; MDA-N; EKVX NSCLC; A498 renal; HCC-2998 colon; HOP-62 NSCLC; SW-620 colon; OVCAR-8 ovarian; HCT-116 colon; DU-145 prostate; 786-0 renal; A549 NSCLC; SK-MEL-2 melanoma.
Test in all cases: growth of human tumour cells (NCI), 48 h

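In this assay, cells in 96-well plates receive the compound at five concentrations for 48 hours. Endpoints are linearly interpolated between the surrounding concentrations. TGI: total growth inhibition.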

For `CCCCCCc1cc2cc(C(=O)NCc3ccccc3)c(=N)oc2cc1O`, the TGI in the experiment with SNB-75 CNS, with CCRF-CEM leukemia, in the experiment with HS 578T breast, in the experiment with UACC-62 melanoma, in the experiment with MDA-N and in the experiment on EKVX NSCLC was above 100 µM each time. For the same compound, the TGI in the experiment on A498 renal, in the experiment with HCC-2998 colon, in the experiment on HOP-62 NSCLC, in the experiment on SW-620 colon, with OVCAR-8 ovarian and with HCT-116 colon was above 100 µM throughout. Further, the TGI in the experiment with DU-145 prostate, in the experiment on 786-0 renal, in the experiment on A549 NSCLC and in the experiment with SK-MEL-2 melanoma was above 100 µM throughout.
Consider `O=C1C=CC(=O)c2c(O)c(NCCO)c(Cl)c(O)c21`, for which the TGI with SNB-75 CNS is above 6.54 µM; in the experiment with CCRF-CEM leukemia it was above 10 µM; in the experiment on HS 578T breast it was above 10 µM; in the experiment on UACC-62 melanoma it was 3.47 µM; in the experiment on MDA-N, 3.42 µM; with EKVX NSCLC, above 10 µM. For the same compound, the TGI in the experiment with A498 renal is above 10 µM; with HCC-2998 colon, above 7.21 µM; in the experiment with HOP-62 NSCLC it was above 8.35 µM; in the experiment with SW-620 colon, 5.11 µM; in the experiment with OVCAR-8 ovarian it was above 10 µM; in the experiment with HCT-116 colon, 3.55 µM. The TGI is 4.98 µM in the experiment on DU-145 prostate, above 10 µM in the experiment on 786-0 renal, 3.78 µM in the experiment with A549 NSCLC and above 6.68 µM with SK-MEL-2 melanoma.
For `O=C(CCc1ccc(O)c(O)c1)NCCc1ccccc1`, the TGI in the experiment on SNB-75 CNS is above 100 µM; with CCRF-CEM leukemia, above 90.8 µM; with HS 578T breast, above 100 µM; with UACC-62 melanoma it was above 65.2 µM; with MDA-N it was 43.3 µM; with EKVX NSCLC, above 100 µM. The TGI with A498 renal was above 100 µM; with HCC-2998 colon, above 100 µM; in the experiment with HOP-62 NSCLC it was above 100 µM; in the experiment with SW-620 colon it was above 100 µM; with OVCAR-8 ovarian, above 100 µM; with HCT-116 colon, above 31.6 µM. In addition, the TGI in the experiment on DU-145 prostate is above 100 µM; with 786-0 renal, above 100 µM; in the experiment with A549 NSCLC, above 100 µM; in the experiment with SK-MEL-2 melanoma, above 93.7 µM.
As for `CC1(C)CCCC2CC2CCC(C)(C)C1=O` (centres undefined), the TGI in the experiment with SNB-75 CNS was above 100 µM; in the experiment with CCRF-CEM leukemia, 38.4 µM; with HS 578T breast, above 100 µM; in the experiment with UACC-62 melanoma, above 100 µM; in the experiment with MDA-N it was above 100 µM; with EKVX NSCLC it was above 100 µM. For the same compound, the TGI with A498 renal was above 100 µM; in the experiment with HCC-2998 colon it was 21.7 µM; with HOP-62 NSCLC it was above 100 µM; in the experiment with SW-620 colon it was above 100 µM; with OVCAR-8 ovarian it was above 100 µM; with HCT-116 colon, above 100 µM. The TGI in the experiment with DU-145 prostate is above 100 µM; with 786-0 renal it was 86.6 µM; in the experiment on A549 NSCLC, above 100 µM; in the experiment with SK-MEL-2 melanoma, above 100 µM.
Take `C=C[C@]1(C)CC(=O)C(C(C)C=O)[C@]12C(=O)Oc1cccc(C)c1C2=O` (some centres undefined): the TGI in the experiment with SNB-75 CNS worked out at 30.8 µM; in the experiment with CCRF-CEM leukemia, 17.6 µM; with HS 578T breast it was 42.7 µM; in the experiment with UACC-62 melanoma it was 31 µM; with MDA-N, 27.6 µM; in the experiment on EKVX NSCLC it was 40.2 µM. In addition, the TGI worked out at 71.1 µM in the experiment with A498 renal; 31.7 µM in the experiment with HCC-2998 colon; 35.9 µM with HOP-62 NSCLC; 25.2 µM with SW-620 colon; 31.5 µM with OVCAR-8 ovarian; 20.6 µM in the experiment with HCT-116 colon. For the same compound, the TGI with DU-145 prostate stood at 30.6 µM; with 786-0 renal, 30 µM; with A549 NSCLC it was 44.4 µM; in the experiment with SK-MEL-2 melanoma, 32.4 µM.
Regarding `CC1=NN(c2cccc(Cl)c2)C2(C1=Cc1cccs1)C(Cl)C(=O)N2c1nc2ccccc2s1` (centres undefined), the TGI in the experiment on SNB-75 CNS turned out to be 86.3 µM; with HS 578T breast, 68.7 µM; with MDA-N, 48.1 µM; in the experiment on EKVX NSCLC, 42.8 µM; in the experiment with A498 renal it was 43.5 µM; in the experiment with HCC-2998 colon it was 35.3 µM. The TGI in the experiment with HOP-62 NSCLC was above 100 µM; with SW-620 colon it was above 100 µM; in the experiment on OVCAR-8 ovarian it was 48.2 µM; with HCT-116 colon it was 34.1 µM; with DU-145 prostate, above 100 µM; with 786-0 renal, 29.1 µM. For the same compound, the figures for the TGI in the experiment on A549 NSCLC and in the experiment on SK-MEL-2 melanoma were 63.7 µM and 36.5 µM, respectively.
For the compound `Cc1occc1C(=S)Nc1ccc(Cl)c(C(=O)OCC(C)C)c1`, the TGI was 29.4 µM in the experiment with SNB-75 CNS; above 100 µM in the experiment on CCRF-CEM leukemia; 62.6 µM in the experiment with HS 578T breast; 26.5 µM in the experiment with UACC-62 melanoma; 47.8 µM with MDA-N; 31 µM in the experiment with EKVX NSCLC. Besides, the TGI in the experiment on A498 renal was 30.4 µM; in the experiment on HCC-2998 colon, 35.3 µM; in the experiment with SW-620 colon, 45.8 µM; with OVCAR-8 ovarian, 30.7 µM; in the experiment with HCT-116 colon, 28.8 µM; in the experiment with DU-145 prostate, 39.8 µM. The TGI with 786-0 renal was found to be 33.5 µM; with A549 NSCLC, 42.4 µM; with SK-MEL-2 melanoma it was 40.2 µM.
Turning to `N#Cc1sc2c(c1OC(=O)c1ccc(Cl)cc1)c(=O)n(-c1ccccc1)c(=S)n2-c1ccccc1`, the TGI with SNB-75 CNS is above 100 µM; in the experiment on CCRF-CEM leukemia, 31.2 µM; in the experiment on HS 578T breast, 56.2 µM; in the experiment on UACC-62 melanoma, 35.6 µM; in the experiment on MDA-N it was 55.1 µM; with EKVX NSCLC, 49.2 µM. Also, the TGI in the experiment on A498 renal amounted to 57.2 µM; with HCC-2998 colon it was 52.2 µM; with HOP-62 NSCLC, 82.7 µM; in the experiment on SW-620 colon, 46.9 µM; in the experiment with OVCAR-8 ovarian, 67.1 µM; in the experiment with HCT-116 colon, 44.3 µM. For the same compound, the TGI in the experiment with DU-145 prostate is above 100 µM; in the experiment with 786-0 renal it was 63.6 µM; in the experiment on A549 NSCLC it was above 100 µM.
On to `COc1ccc2nc3c(C)cc4ccccc4n3c2c1`, for which the TGI with SNB-75 CNS was above 100 µM; with CCRF-CEM leukemia, above 100 µM; with HS 578T breast, 79.3 µM; with UACC-62 melanoma, above 100 µM; with MDA-N, above 100 µM; in the experiment with EKVX NSCLC it was above 100 µM. In addition, the TGI was 65.4 µM in the experiment with A498 renal; above 100 µM with HCC-2998 colon; above 100 µM in the experiment on HOP-62 NSCLC; above 100 µM in the experiment with SW-620 colon; above 100 µM in the experiment on OVCAR-8 ovarian; above 100 µM in the experiment with HCT-116 colon. For the same compound, the TGI with DU-145 prostate, in the experiment with 786-0 renal and with A549 NSCLC was above 100 µM each time.

Source of the values: PubChem BioAssay (NCI).
